Laboratory results published in PMC2667962 (Biochemistry, 2008).

How the values were obtained:
[1] = Formation of anhydrous cholesterol crystals seen by DSC
[2] = DSC of the phase transition of pure SOPC with peptide; conditions: cooling scans, SOPC without peptide 5 °C

Substance	formation of anhydrous cholesterol crystals ([1]; any of the SOPC/cholesterol ratios)	transition temperature of pure SOPC ([2]; 5 mol% peptide) [°C]	transition temperature of pure SOPC ([2]; 10 mol% peptide) [°C]	transition temperature of pure SOPC ([2]; 15 mol% peptide) [°C]	formation of cholesterol crystals ([1]; 6/4 ratio of SOPC/cholesterol)	formation of cholesterol crystals ([1]; mixtures with 30% cholesterol)
LWGIG	no formation of anhydrous cholesterol crystals	4.7	4.7	4.5		
Ac-GWGIK-NH2 [GWGIK, N-acetyl-GWGIK-amide]					no formation of cholesterol crystals	small peak corresponding to cholesterol crystals
